Laboratory results as given in paper PMC11638952, “Fine-Tuning the Function of Farnesene Synthases for Selective Synthesis of Farnesene Stereoisomers” (Journal of Agricultural and Food Chemistry, 2024).

Experiments:
Settings in all cases: 50 mM Tris-HCl pH 8.0, 10 μM MgCl2, 30 °C, 10 min, FPP 2-80 μM
AaFS [1] = target: T1, AaFS (Artemisia annua, UniProt Q9FXY7, W299C, form not given)
T1 construct: gene CASC125
From the text: (§1) steady-state kinetics, product quantified by peak area after hexane extraction on AaFS

AaFS [2] = target: T2, AaFS (Artemisia annua, UniProt Q9FXY7, M436I, form not given)
T2 construct: gene CASC125
From the text: as §1

AaFS [3] = target: T3, AaFS (Artemisia annua, UniProt Q9FXY7, L326I, form not given)
T3 construct: gene CASC125
From the text: as §1

AaFS [4] = target: T4, AaFS (Artemisia annua, UniProt Q9FXY7)
T4 construct: gene CASC125
From the text: as §1

T2 sequence (Q9FXY7 whole entry M436I, form open): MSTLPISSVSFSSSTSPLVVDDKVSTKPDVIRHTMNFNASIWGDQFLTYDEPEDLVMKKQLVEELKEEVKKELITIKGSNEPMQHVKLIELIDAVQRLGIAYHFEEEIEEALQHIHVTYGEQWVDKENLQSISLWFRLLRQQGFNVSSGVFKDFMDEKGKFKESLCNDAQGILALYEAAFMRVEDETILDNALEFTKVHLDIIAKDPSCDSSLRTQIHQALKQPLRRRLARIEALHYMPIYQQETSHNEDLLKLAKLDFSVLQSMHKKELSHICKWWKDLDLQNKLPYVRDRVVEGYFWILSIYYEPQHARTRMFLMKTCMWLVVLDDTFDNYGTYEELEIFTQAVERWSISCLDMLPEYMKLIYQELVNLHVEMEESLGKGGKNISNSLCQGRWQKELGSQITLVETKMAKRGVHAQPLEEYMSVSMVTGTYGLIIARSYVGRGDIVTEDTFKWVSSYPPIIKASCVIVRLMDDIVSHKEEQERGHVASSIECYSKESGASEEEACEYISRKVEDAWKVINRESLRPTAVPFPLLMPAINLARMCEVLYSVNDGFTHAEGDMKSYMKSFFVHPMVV
T1 sequence (Q9FXY7 whole entry W299C, form open): as the sequence (Q9FXY7 whole entry M436I, form open) above, with W299C, I436M counted along it
T3 sequence (Q9FXY7 whole entry L326I, form open): as the sequence (Q9FXY7 whole entry M436I, form open) above, with L326I, I436M counted along it
T4 sequence (Q9FXY7 whole entry): as the sequence (Q9FXY7 whole entry M436I, form open) above, with I436M counted along it

Km (AaFS [1]): 21.3 ± 1.8 µM | Km (AaFS [2]): 7.64 ± 4.8 µM | Km (AaFS [3]): 6.75 ± 3.7 µM | Km (AaFS [4]): 14.3 ± 2.3 µM
SMILES: CC(C)=CCC/C(C)=C/CC/C(C)=C/CO[P@@](=O)(O)OP(=O)(O)O (stereo in doubt) [FPP, farnesyl pyrophosphate]
